# In US20250340577A1, “BETA-LACTOMASE INHIBITORS AND USES THEREOF” (Case Western Reserve University, priority 2021, published 2025):
# Legend:
# [1] = test system: blaPDC-3E221K; test: MIC of antibiotics in combination with 10 μg/mL of ceftolozane-like BATSIs; assay type: cell-based; details: CAZ alone
# [2] = test system: M9 clinical; test: as above; assay type: cell-based; details: CAZ alone
# [3] = test system: 18SH; test: as above; assay type: cell-based; details: CAZ alone
# [4] = test system: blaADC-7; test: as above; assay type: cell-based; details: CAZ alone
# [5] = test system: blaCMY-2; test: as above; assay type: cell-based; details: CAZ alone
# [6] = test system: K. pneumoniae ST258 B5; test: MIC with cefepime, agar microdilution, CLSI; assay type: cell-based; details: cefepime alone; KPC-2
# Method: (§1) Minimum inhibitory concentration (MIC) of MB076 and derivatives (PCF_038-043) in combination with cefepime.
# (§2) MICs were determined by the Agar microdilution method, following CLSI guidelines. Compounds were tested at fixed concentration of 4 ug/ml in combination with cefepime.
# [7] = test system: K. pneumoniae 255; test: MIC with cefepime, agar microdilution, CLSI; assay type: cell-based; details: cefepime alone; TEM-1, SHV-2
# Method: as §1, §2
# [8] = test system: E. coli DH10B pBC-SK PDC-3; test: MIC with cefepime, agar microdilution, CLSI; assay type: cell-based; details: cefepime alone
# Method: as §1, §2
# [9] = test system: A. baumannii 0057; test: MIC with cefepime, agar microdilution, CLSI; assay type: cell-based; details: cefepime alone; ADC-7
# Method: as §1, §2
# [10] = test system: K. pneumoniae ST17; test: MIC with cefepime, agar microdilution, CLSI; assay type: cell-based; details: cefepime alone; KPC-2, TEM, SHV, CTX-M-Group 1
# Method: as §1, §2
# [11] = test system: K. pneumoniae 253; test: MIC with cefepime, agar microdilution, CLSI; assay type: cell-based; details: cefepime alone; TEM-12, SHV-5, CTX-M
# Method: as §1, §2
# [12] = test system: E. coli pLTCF2; test: MIC with cefepime, agar microdilution, CLSI; assay type: cell-based; details: cefepime alone
# Method: as §1, §2
# [13] = test system: E. coli DH10B pBC-SK P99; test: MIC with cefepime, agar microdilution, CLSI; assay type: cell-based; details: cefepime alone
# Method: as §1, §2
# [14] = test system: E. coli DH10B pBC-SK SHV-2; test: MIC with cefepime, agar microdilution, CLSI; assay type: cell-based; details: cefepime alone
# Method: as §1, §2
# [15] = test system: K. pneumoniae ST258 C3; test: MIC with cefepime, agar microdilution, CLSI; assay type: cell-based; details: cefepime alone; KPC-3
# Method: as §1, §2
# [16] = test system: E. coli DH10B pBC-SK KPC-2; test: MIC with cefepime, agar microdilution, CLSI; assay type: cell-based; details: cefepime alone
# Method: as §1, §2
# [17] = test system: E. coli ATCC BAA202; test: MIC with cefepime, agar microdilution, CLSI; assay type: cell-based; details: cefepime alone; SHV-1
# Method: as §1, §2
# [18] = test system: K. pneumoniae 34700; test: MIC with cefepime, agar microdilution, CLSI; assay type: cell-based; details: cefepime alone; CTX-M-15, SHV, TEM
# Method: as §1, §2
# [19] = test system: K. pneumoniae original KPC-2; test: MIC with cefepime, agar microdilution, CLSI; assay type: cell-based; details: cefepime alone
# Method: as §1, §2
# [20] = test system: E. coli DH10B pBC-SK control; test: MIC with cefepime, agar microdilution, CLSI; assay type: cell-based; details: cefepime alone; B-lactamases none
# Method: as §1, §2
# [21] = test system: E. coli pLTCF1; test: MIC with cefepime, agar microdilution, CLSI; assay type: cell-based; details: cefepime alone; CTX-M group 9
# Method: as §1, §2
# [22] = test system: K. pneumoniae 266; test: MIC with cefepime, agar microdilution, CLSI; assay type: cell-based; details: cefepime alone; SHV-5
# Method: as §1, §2
# [23] = test system: E. coli 29838; test: MIC with cefepime, agar microdilution, CLSI; assay type: cell-based; details: cefepime alone; CTX-M-14, TEM-1
# Method: as §1, §2
# [24] = test system: K. pneumoniae 427; test: MIC with cefepime, agar microdilution, CLSI; assay type: cell-based; details: cefepime alone; TEM-1, SHV-1, CTX-M-3
# Method: as §1, §2
# [25] = test system: Klebsiella pneumonia/BAA-1705; test: MIC of MB076 alone or in combination with cefepime or meropenem; assay type: cell-based; details: Klebsiella pneumoniae, BAA1705; single agent; read-out: MIC
# Method: as §2
# [26] = test system: Klebsiella pneumonia/FDA-CDC AR-BANK#0098; test: as above; assay type: cell-based; details: Klebsiella pneumoniae; single agent; read-out: MIC
# Method: as §2
# [27] = test system: Klebsiella pneumonia/FDA-CDC AR-BANK#0097; test: as above; assay type: cell-based; details: Klebsiella pneumoniae; single agent; read-out: MIC
# Method: as §2
# [28] = test system: K. pneum KPC-Kpn; test: MIC of antibiotics in combination with 10 μg/mL of ceftolozane-like BATSIs; assay type: cell-based; details: FEP alone
# [29] = test system: K. pneumoniae Kp1; test: Survival of mice infected IV with K. pneumoniae Kp1; assay type: in vivo; details: C57BL/6 mice infected IV with KP1; treated IP at infection, 18 h and 24 h; cefepime 100 mg/kg/dose; cefepime+MB076 at 1:4 ratio
# Method: FIG. 1 illustrates the survival curve of mice infected IV with K. pneumoniae Kp1 and treated with cefepime alone or in combination with MB076. Five male C57BL/6 mice per treatment were infected IV via the tail-vein with 2.1×10^8 CFU/mouse and treated with placebo control (phosphate-buffered saline), cefepime (100 mg/kg/dose), or cefepime and MB076.
# To determine […] activity of MB076 we used cefepime with or without MB076 in mice infected IV with the pan drug resistant strain KP1 and treated IP at the time of infection with placebo control, cefepime, or cefepime+MB076 (at 1:4 ratio). Doses were repeated the following morning and afternoon (18 h and 24 h after infection, respectively). All mice treated with placebo or cefepime alone died, whereas all mice treated with either ratio of MB076 plus cefepime survived.
# [30] = test system: K. pneum blaKPC-2; test: MIC of antibiotics in combination with 10 μg/mL of ceftolozane-like BATSIs; assay type: cell-based; details: FEP alone
# [31] = test system: blaCTXM-9; test: as above; assay type: cell-based; details: FEP alone
# [32] = test system: NDM-1 pHSG298; test: as above; assay type: cell-based; details: IMI alone
# [33] = test system: HUMC1 Abspp; test: as above; assay type: cell-based; details: SULB alone
smiles,measurement,setting,value
"CC(C)(O/N=C(\C(=O)N[C@@H]1C(=O)N2C(C(=O)[O-])=C(C[n+]3ccccc3)CS[C@H]12)c1csc(N)n1)C(=O)O [CAZ, ceftazidime, reference compound]",MIC of antibiotic,[1],CAZ 32 mg/mL
same,MIC of antibiotic,[2],CAZ >32 mg/mL
same,MIC of antibiotic,[3],CAZ 64 mg/mL
same,MIC of antibiotic,[4],CAZ 16 mg/mL
same,MIC of antibiotic,[5],CAZ 128 mg/mL
"CO/N=C(\C(=O)N[C@@H]1C(=O)N2C(C(=O)[O-])=C(C[N+]3(C)CCCC3)CS[C@H]12)c1csc(N)n1 [Cefepime, cefepime, reference compound]",MIC of cefepime,[6],32 mg/L
same,MIC of cefepime,[7],4 mg/L
same,MIC of cefepime,[8],< 0.25 mg/L
same,MIC of cefepime,[9],64 mg/L
same,MIC of cefepime,[10],64 mg/L
same,MIC of cefepime,[11],32 mg/L
same,MIC of cefepime,[12],1 mg/L
same,MIC of cefepime,[13],< 0.25 mg/L
same,MIC of cefepime,[14],4 mg/L
same,MIC of cefepime,[15],8 mg/L
same,MIC of cefepime,[16],8 mg/L
same,MIC of cefepime,[17],1 mg/L
same,MIC of cefepime,[18],32 mg/L
same,MIC of cefepime,[19],8 mg/L
same,MIC of cefepime,[20],< 0.25 mg/L
same,MIC of cefepime,[21],8 mg/L
same,MIC of cefepime,[22],2 mg/L
same,MIC of cefepime,[23],4 mg/L
same,MIC of cefepime,[24],8 mg/L
same,MIC,[25],> 32 mg/L
same,MIC,[26],32 mg/L
same,MIC,[27],> 32 mg/L
same,MIC of antibiotic,[28],FEP 32 mg/mL
same,Survival of infected mice,[29],died
same,MIC of antibiotic,[30],16/32
same,MIC of antibiotic,[31],FEP 8 mg/mL
C[C@@H](O)[C@H]1C(=O)N2C(C(=O)O)=C(SCCN=CN)C[C@H]12 [IMI],MIC of antibiotic,[32],IMI 8 mg/mL
"CC1(C)[C@H](C(=O)O)N2C(=O)C[C@H]2S1(=O)=O [SULB, sulbactam]",MIC of antibiotic,[33],SULB 4 mg/mL
